Test results published in patent publication US11465984B2, “Compound having ERK kinase inhibitory activity and use thereof” (SHANGHAI HAIHE PHARMACEUTICAL CO., LTD., priority 2017, dated 2022).
Read-outs that look alike come from different tables or passages of the source.

Experiments:
[1] = Chemical stability assay in solutions with various pH values (UPLC); type: physicochemical
From the text: 1. Detection Means and Conditions Used in the Chemical Stability Assay
• Detection method: Ultra-high performance liquid chromatography (UPLC) Chromatographic Conditions: • System: Ultra-high performance liquid chromatography system including pump, automatic sample injector, detector, and column oven • Column Waters Acquity UPLC BEH C18 (2.1*50 mm, 1.7 μm) • Detector: PDA detector • Detection wavelength: 225 nm • Mobile phase: A: 0.05% trifluoroacetic acid in water • B: acetonitrile • Gradient:
• Flow rate: 0.4 ml/min • Column temperature: 40° C. • Injecion volume: 2 μl 2. Study on the Chemical Stability of the Compounds of the Invention (1). Formulation of Solutions of Test Compound P9
Compound P9 was formulated as solutions in different buffer systems at a concentration of 0.2 mg/ml using PEG400 as cosolvent. These solutions were used for chemical stability study. The solutions with various pH values were formulated as follows: […]
Conditions for the chemical stability assay: the solutions of Compound P9 with various pH values were stored at 37° C. for 24 h. The content of Compound P9 was determined by HPLC at 0, 4, 8, 12, 14 and 24 h. […]

[2] = biological target: ERK2 kinase (Homo sapiens (Human), UniProt P28482); experiment: In vitro enzyme activity assay, ERK2 kinase (Z'-LYTE); type: biochemical
Sequence of ERK2 kinase (P28482 whole entry): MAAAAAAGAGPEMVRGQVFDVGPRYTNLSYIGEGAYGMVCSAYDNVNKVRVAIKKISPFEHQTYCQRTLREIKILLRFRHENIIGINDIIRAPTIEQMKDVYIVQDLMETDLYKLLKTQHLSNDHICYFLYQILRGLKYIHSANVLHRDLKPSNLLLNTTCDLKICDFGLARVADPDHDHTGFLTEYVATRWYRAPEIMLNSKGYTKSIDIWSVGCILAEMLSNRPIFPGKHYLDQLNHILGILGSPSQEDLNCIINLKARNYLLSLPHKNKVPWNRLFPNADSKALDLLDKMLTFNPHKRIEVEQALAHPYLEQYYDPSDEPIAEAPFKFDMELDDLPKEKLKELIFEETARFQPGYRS
Description: Half inhibitory activity of the compounds of the invention against ERK2 kinase (IC50 value) was determined in this Example.
• Enzyme: extracellular signal-regulated kinase ERK2 kinase (PV3595, Invitrogen) • Kit: Z′-LYTE® Protein Kinase Assay Kit-Ser/Thr 3 Peptide (PV3176, Invitrogen) • Kit components: The substrate Z′-LYTE™ Ser/Thr 3 Peptide (PV3200) • The phosphorylation substrate Z′-LYTE™ Ser/Thr 3 Phospho-peptide (PV3215) • 5× kinase buffer: 250 mM HEPES (pH 7.5), 50 mM MgCl2, • 5 mM EGTA, 0.05% BRIJ-35 (PV3189, Invitrogen) • ATP (PV3227, Invitrogen) • Development Reagent A (PV3295, Invitrogen) • Development Buffer (P3127, Invitrogen) • Stop Reagent (P3094, Invitrogen) • Microplate reader: The multil-mode microplate reader PerkinElmer EnVision® • Microplate: black shallow 384-well microplate (6008269, PerkinElmer) (2). Assay Protocol:
The substrate Z′-LYTE™ Ser/Thr 3 Peptide, the phosphorylation substrate Z′-LYTE™ Ser/Thr 3 Phospho-peptide, 1× kinase buffer (5× kinase buffer was diluted with ultra pure water by five times), ATP, Development Reagent A, Development Buffer, Stop Reagent were balanced to room temperature for use. The screening concentrations for detecting the effect of the compounds of the invention on the ERK kinase activity were seven 3-fold serial dilutions starting from 1 μM (from 0.2 μM for the positive drug control) using 4% DMSO as co-solvent. 5 μL enzyme system (50 mM HEPES pH 7.5, 1 mM EGTA, 10 mM MgCl2, 0.01% Brij-35, 4 uM substrate, 0.8 ng/μL enzyme), 2.5 μL Compound, 2.5 μL 400 μM ATP were added into 384 well microplate, followed by incubation at room temperature for 60 min in the dark. After the reaction was completed, 5 μl the developing agent (Development Reagent A) diluted with the developing buffer (Development Buffer) was added to all reaction wells, followed by incubation at the room temperature for 60 min in the dark. 5 μL the terminating agent was added to each well to terminate the reaction. The fluorescence was determined using the multil-mode microplate reader PerkinElmer EnVision® (excitation wavelength 400 nm, emission wavelength 460 nm and 528 nm).
The inhibition rate of each well was calculated from 100% phosphorylation substrate well and 0% phosphorylation substrate well using the data analysis method below: phosphorylation %=1−{(emission rate×F100%−C100%)/[C0%−C100%+emission rate×(F100%−F0%)]}×100 inhibition %=100×(1−phosphorylation % of the test compound well/phosphorylation % of the 0% inhibition control) • wherein: • emission rate=fluorescence emission of the sample at 445 nm/fluorescence emission of the sample at 520 nm • F100%=the average fluorescence emission of the control well of 100% phosphorylation substrate at 520 nm • F0%=the average fluorescence emission of the control well of 0% phosphorylation substrate at 520 nm • C100%=the average fluorescence emission of the control well of 100% phosphorylation substrate at 445 nm • C0%=the average fluorescence emission of the control well of 0% phosphorylation substrate at 445 nm
Tests were carried out in duplicate. IC50 values were calculated from the inhibition of the kinase by the test compounds at a range of different concentrations.

Compound: Cn1nccc1Nc1cc(-c2cc(F)c3c(c2)CCN3C(=O)Cc2cccnc2Cl)ccn1 [Example P9, 2-(2-chloropyridin-3-yl)-1-(7-fluoro-5-(2-((1-methyl-1H-pyrazol-5-yl)amino)pyridin-4-yl)indolin-1-yl)ethan-1-one]
- Percentage (%) of the peak area of the total impurity ([1]; solution pH 2.0, 37° C., 0 h): 0.84%
- Percentage (%) relative to the peak area of the compound at the original point ([1]; solution pH 2.0, 37° C., 0 h): 100.0%
- Percentage (%) of the peak area of the total impurity ([1]; solution pH 2.0, 37° C., 4 h): 0.85%
- Percentage (%) relative to the peak area of the compound at the original point ([1]; solution pH 2.0, 37° C., 4 h): 100.1%
- Percentage (%) of the peak area of the total impurity ([1]; solution pH 2.0, 37° C., 8 h): 0.85%
- Percentage (%) relative to the peak area of the compound at the original point ([1]; solution pH 2.0, 37° C., 8 h): 101.0%
- Percentage (%) of the peak area of the total impurity ([1]; solution pH 2.0, 37° C., 12 h): 0.85%
- Percentage (%) relative to the peak area of the compound at the original point ([1]; solution pH 2.0, 37° C., 12 h): 100.6%
- Percentage (%) of the peak area of the total impurity ([1]; solution pH 2.0, 37° C., 14 h): 0.84%
- Percentage (%) relative to the peak area of the compound at the original point ([1]; solution pH 2.0, 37° C., 14 h): 100.6%
- Percentage (%) of the peak area of the total impurity ([1]; solution pH 2.0, 37° C., 24 h): 0.85%
- Percentage (%) relative to the peak area of the compound at the original point ([1]; solution pH 2.0, 37° C., 24 h): 101.0%
- Percentage (%) of the peak area of the total impurity ([1]; solution pH 6.8, 37° C., 0 h): 0.75%
- Percentage (%) relative to the peak area of the compound at the original point ([1]; solution pH 6.8, 37° C., 0 h): 100.0%
- Percentage (%) of the peak area of the total impurity ([1]; solution pH 6.8, 37° C., 4 h): 0.69%
- Percentage (%) relative to the peak area of the compound at the original point ([1]; solution pH 6.8, 37° C., 4 h): 101.0%
- Percentage (%) of the peak area of the total impurity ([1]; solution pH 6.8, 37° C., 8 h): 0.71%
- Percentage (%) relative to the peak area of the compound at the original point ([1]; solution pH 6.8, 37° C., 8 h): 101.4%
- Percentage (%) of the peak area of the total impurity ([1]; solution pH 6.8, 37° C., 12 h): 0.71%
- Percentage (%) relative to the peak area of the compound at the original point ([1]; solution pH 6.8, 37° C., 12 h): 101.6%
- Percentage (%) of the peak area of the total impurity ([1]; solution pH 6.8, 37° C., 14 h): 0.68%
- Percentage (%) relative to the peak area of the compound at the original point ([1]; solution pH 6.8, 37° C., 14 h): 100.8%
- Percentage (%) of the peak area of the total impurity ([1]; solution pH 6.8, 37° C., 24 h): 0.68%
- Percentage (%) relative to the peak area of the compound at the original point ([1]; solution pH 6.8, 37° C., 24 h): 101.7%
- Percentage (%) of the peak area of the total impurity ([1]; solution pH 7.4, 37° C., 0 h): 0.72%
- Percentage (%) relative to the peak area of the compound at the original point ([1]; solution pH 7.4, 37° C., 0 h): 100.0%
- Percentage (%) of the peak area of the total impurity ([1]; solution pH 7.4, 37° C., 4 h): 0.67%
- Percentage (%) relative to the peak area of the compound at the original point ([1]; solution pH 7.4, 37° C., 4 h): 100.3%
- Percentage (%) of the peak area of the total impurity ([1]; solution pH 7.4, 37° C., 8 h): 0.65%
- Percentage (%) relative to the peak area of the compound at the original point ([1]; solution pH 7.4, 37° C., 8 h): 101.4%
- Percentage (%) of the peak area of the total impurity ([1]; solution pH 7.4, 37° C., 12 h): 0.67%
- Percentage (%) relative to the peak area of the compound at the original point ([1]; solution pH 7.4, 37° C., 12 h): 100.9%
- Percentage (%) of the peak area of the total impurity ([1]; solution pH 7.4, 37° C., 14 h): 0.71%
- Percentage (%) relative to the peak area of the compound at the original point ([1]; solution pH 7.4, 37° C., 14 h): 101.3%
- Percentage (%) of the peak area of the total impurity ([1]; solution pH 7.4, 37° C., 24 h): 0.74%
- Percentage (%) relative to the peak area of the compound at the original point ([1]; solution pH 7.4, 37° C., 24 h): 101.1%
- chemical stability (conclusion in words) ([1]; storage in solutions of various pH at 37° C. for 24 h): good chemical stability
- IC50 ([2]; class symbols, read-out: ERK2 IC50): ≤ 10 nM
- IC50 ([2]; read-out: IC50 against ERK2 kinase): 3.3 nM
